From patent publication EP4603105A1, “PHARMACEUTICAL COMPOSITION CONTAINING CYCLIC COMPOUND HAVING SELECTIVE KRAS INHIBITORY EFFECT AGAINST HRAS AND NRAS” (CHUGAI SEIYAKU KABUSHIKI KAISHA, priority 2022, dated 2024)
Read-outs that look alike come from different tables or passages of the source.

Assays:
[1] = tested on: human lung cancer strain NCI-H441; experiment: NCI-H441 cell proliferation inhibitory activity (CellTiter-Glo, 4 days); type: cell-based; conditions: read-out: NCl-H441 IC50
Outline: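 Signal came from […] measured per well once the reagent was added. Beforehand, cells were cultured at 37°C and 5% carbon dioxide on a compound series serially diluted in dimethyl sulfoxide.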

[2] = biological target: GDP-bound NRAS wild-type protein (Homo sapiens, UniProt P01111); experiment: Binding to NRAS by surface plasmon resonance (SPR), KD and KD ratio to KRAS
GDP-bound NRAS wild-type protein, sequence (P01111 whole entry): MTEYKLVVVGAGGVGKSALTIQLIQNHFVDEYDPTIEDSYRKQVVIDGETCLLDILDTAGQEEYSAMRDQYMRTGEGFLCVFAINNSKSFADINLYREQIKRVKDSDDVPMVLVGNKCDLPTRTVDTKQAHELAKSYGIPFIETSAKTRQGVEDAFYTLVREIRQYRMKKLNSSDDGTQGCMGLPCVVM
Outline: (§1)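 Each cycle, GDP-bound biotin-Avi RAS was captured (~100–300 RU), compound concentrations were injected low to high for 75 s each at 100 µL/min, then the chip was regenerated. Buffer: HBS pH 7.4, 10 mM MgCl2, 10 µM GDP, 1 mM DTT, 4% DMSO; 30°C. KD from a 1:1 binding model.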

[3] = biological target: GDP-bound KRAS wild-type protein (Homo sapiens, UniProt P01116); experiment: Binding to KRAS by surface plasmon resonance (SPR), dissociation constant KD
GDP-bound KRAS wild-type protein, sequence (P01116 1-188 isoform P01116-2): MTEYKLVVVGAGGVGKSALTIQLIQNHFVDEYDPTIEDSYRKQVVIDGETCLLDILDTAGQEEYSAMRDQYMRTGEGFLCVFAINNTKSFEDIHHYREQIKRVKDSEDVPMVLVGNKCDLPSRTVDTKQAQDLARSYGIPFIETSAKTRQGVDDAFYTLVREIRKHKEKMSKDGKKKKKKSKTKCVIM
Outline: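 Single-cycle kinetics on GDP-loaded biotin-Avi RAS captured to ~100–300 RU; 75 s ascending injections, 100 µL/min, 30°C. HBS pH 7.4 + 10 mM MgCl2/10 µM GDP/4% DMSO. 1:1 fit, KD.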

HRAS wild-type protein = HRAS wild-type protein (Homo sapiens, UniProt P01112); experiment: Binding to HRAS by surface plasmon resonance (SPR), KD and KD ratio to KRAS
HRAS wild-type protein, sequence (P01112 whole entry): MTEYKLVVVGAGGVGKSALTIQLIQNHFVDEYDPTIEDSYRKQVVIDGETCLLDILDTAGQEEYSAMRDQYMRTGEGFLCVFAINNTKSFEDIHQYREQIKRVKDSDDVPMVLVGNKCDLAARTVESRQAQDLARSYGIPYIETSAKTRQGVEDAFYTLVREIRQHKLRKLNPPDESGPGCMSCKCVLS
Outline: as §1

[4] = ratio of KD for GDP-bound NRAS wild-type protein to KD for KRAS
[5] = ratio of KD for HRAS wild-type protein to KD for KRAS
[6] = 50% proliferation inhibitory concentration, four days
[7] = ratio of KD with respect to GDP-bound NRAS wild-type protein to KD with respect to KRAS
[8] = Single Cycle Kinetics, 1:1 binding model
[9] = ratio of KD with respect to HRAS wild-type protein to KD with respect to KRAS

SMILES	IC50 ([1]; NCI-H441 cells, 4 days) [nM]	NRAS /KRAS [2, 4]	Kd ([3]; 1:1 binding model) [nM]	HRAS /KRAS (HRAS wild-type protein; [5])	IC50 [1, 6] [nM]	NRAS /KRAS [2, 7]	Kd [3, 8] [nM]	HRAS /KRAS (HRAS wild-type protein; [9])	Kd ([3]; Single Cycle Kinetics) [nM]
CCOC[C@H]1C(=O)N[C@@H]([C@@H](C)CC)C(=O)N(C)CC(=O)N(C)[C@H]2C/C=C\CCN(C2=O)[C@@H](CC2CCC(F)(F)CC2)C(=O)N(C)CC(=O)N[C@@H](CCc2ccc(C(F)(F)F)c(OC)c2)C(=O)N2C[C@@H](C)C[C@H]2C(=O)NC2(CC(C)(C)C2)C(=O)N(C)[C@@H](C(CC)CC)C(=O)N(C)[C@H](C(=O)N(C)C)CC(=O)N1C [PP2458]	80.7	A (a compound having 10 or more and less than 20 is denoted as A)	1.3	A (a compound having 10 or more and less than 20 is denoted as A)	–	–	–	–	–
CCO[C@@H]1C[C@H]2C(=O)NC3(CCC3)C(=O)N(C)[C@@H](C3CCCC3)C(=O)N(C)[C@H](C(=O)N(C)C)CC(=O)N(C)[C@@H](CSC)C(=O)N[C@@H]([C@@H](C)CC)C(=O)N(C)CC(=O)N(C)[C@H]3C/C=C\CCN(C3=O)[C@@H](CC3CCCCC3)C(=O)N(C)CC(=O)N[C@@H](CCc3cc(F)c(C(F)(F)F)c(F)c3)C(=O)N2C1 [PP1463]	–	–	–	–	44.5	A (a compound having 10 or more and less than 20 is denoted as A)	0.13	A (a compound having 10 or more and less than 20 is denoted as A)	–
CCC[C@@H]1NC(=O)C[C@@H](C(=O)N(C)C)N(C)C(=O)[C@H](C2CCCC2)N(C)C(=O)C2(CC(C)(C)C2)NC(=O)[C@@H]2C[C@@H](OCC)CN2C(=O)[C@H](CCc2ccc(C(F)(F)F)c(Cl)c2)NC(=O)CN(C)C(=O)[C@H](Cc2ccc(C(F)(F)F)cc2)N2CC/C=C\C[C@@H](C2=O)N(C)C(=O)CN(C)C(=O)[C@H]([C@@H](C)CC)NC1=O [PP3454]	26.2	A (a compound having 10 or more and less than 20 is denoted as A)	–	A (a compound having 10 or more and less than 20 is denoted as A)	–	–	–	–	0.3
CCO[C@@H]1C[C@H]2C(=O)NC3(CC(C)(C)C3)C(=O)N(C)[C@@H](C3CCCC3)C(=O)N(C)[C@H](C(=O)N(C)CC)CC(=O)N(C)[C@@H]([C@@H](C)OC)C(=O)N[C@@H]([C@@H](C)CC)C(=O)N3CCC[C@H]3C(=O)N(C)[C@H]3C/C=C\CCN(C3=O)[C@@H](Cc3ccc(C(F)(F)F)cc3)C(=O)N(C)CC(=O)N[C@@H](CCc3ccc(C(F)(F)F)c(Cl)c3)C(=O)N2C1 [PP3174]	105	AA (a compound having 20 or more is denoted as AA)	–	A (a compound having 10 or more and less than 20 is denoted as A)	–	–	–	–	1.1
CCCO[C@@H]1C[C@H]2C(=O)NC3(CC(C)(C)C3)C(=O)N(C)[C@@H](C3CCCC3)C(=O)N(C)[C@H](C(=O)N(C)CC)CC(=O)N(C)[C@@H](COCC)C(=O)N[C@@H]([C@@H](C)CC)C(=O)N(C3CC3)CC(=O)N(C)[C@H]3C/C=C\CCN(C3=O)[C@@H](Cc3ccc(C(F)(F)F)cc3)C(=O)N(C)CC(=O)N[C@@H](CCc3ccc(C(F)(F)F)c(Cl)c3)C(=O)N2C1 [PP3403]	15.2	A (a compound having 10 or more and less than 20 is denoted as A)	–	A (a compound having 10 or more and less than 20 is denoted as A)	–	–	–	–	0.81
CCC[C@H]1C(=O)N[C@@H](CC(C)C)C(=O)N(CCOC)CC(=O)N(C)[C@H]2C/C=C\CCN(C2=O)[C@@H](Cc2ccc(C)cc2)C(=O)N(C)CC(=O)N[C@@H](CCc2cc(F)c(C(F)(F)F)c(F)c2)C(=O)N2C[C@H](OCC)C[C@H]2C(=O)NC2(CCC2)C(=O)N(C)[C@@H](C2CCCC2)C(=O)N(C)[C@H](C(=O)N(C)C)CC(=O)N1C [PP2541]	374	A (a compound having 10 or more and less than 20 is denoted as A)	4.9	B (a compound having 3 or more and less than 10 is denoted as B)	–	–	–	–	–
CCC[C@H]1C(=O)N[C@@H]([C@@H](C)CC)C(=O)N2CCC[C@H]2C(=O)N(C)[C@H]2C/C=C\CCN(C2=O)[C@@H](Cc2ccc(C(F)(F)F)cc2)C(=O)N(C)CC(=O)N[C@@H](CCc2cc(F)c(C(F)(F)F)c(F)c2)C(=O)N2C[C@H](OCC)C[C@H]2C(=O)NC2(CCCC2)C(=O)N(C)[C@@H](C2CCCC2)C(=O)N(C)[C@H](C(=O)N(C)C)CC(=O)N1C [PP3474]	14.8	A (a compound having 10 or more and less than 20 is denoted as A)	–	A (a compound having 10 or more and less than 20 is denoted as A)	–	–	–	–	0.43
CCO[C@@H]1C[C@H]2C(=O)NC3(CCC3)C(=O)N(C)[C@@H](C3CCCC3)C(=O)N(C)[C@H](C(=O)N(C)C)CC(=O)N(C)[C@@H](Cc3ccccc3C#N)C(=O)N[C@@H]([C@@H](C)CC)C(=O)N(C)CC(=O)N(C)[C@H]3CCCCCN(C3=O)[C@@H](Cc3ccc(C(F)(F)F)cc3)C(=O)N(C)CC(=O)N[C@@H](CCc3cc(F)c(C(F)(F)F)c(F)c3)C(=O)N2C1 [PP1171]	–	–	–	–	118	B (a compound having 3 or more and less than 10 is denoted as B)	0.69	B (a compound having 3 or more and less than 10 is denoted as B)	–
CCCO[C@H](C)[C@@H]1NC(=O)[C@H](CC(C)C)N(C)C(=O)C[C@@H](C(=O)N(C)C)N(C)C(=O)[C@H](C2CCCC2)N(C)C(=O)C2(CC(C)(C)C2)NC(=O)[C@@H]2C[C@H](C)CN2C(=O)[C@H](CCc2ccc(C(F)(F)F)c(OC)c2)NC(=O)CN(C)C(=O)[C@H](Cc2ccc(C)cc2)N2CC/C=C\C[C@@H](C2=O)N(C)C(=O)CN(C)C1=O [PP2415]	10.3	AA (a compound having 20 or more is denoted as AA)	0.093	A (a compound having 10 or more and less than 20 is denoted as A)	–	–	–	–	–
CCO[C@@H]1C[C@H]2C(=O)NC3(CCC3)C(=O)N(C)[C@@H](C3CCCC3)C(=O)N(C)[C@H](C(=O)N(C)C)CC(=O)N(C)[C@@H](CC3CC3)C(=O)N[C@@H]([C@@H](C)CC)C(=O)N(C)CC(=O)N(C)[C@H]3C/C=C\CCN(C3=O)[C@@H](Cc3ccc(C(F)(F)F)cc3)C(=O)N(C)CC(=O)N[C@@H](CCc3ccc(C(F)(F)F)c(OC)c3)C(=O)N2C1 [PP1247]	–	–	–	–	6.4	A (a compound having 10 or more and less than 20 is denoted as A)	0.046	A (a compound having 10 or more and less than 20 is denoted as A)	–
CCO[C@@H]1C[C@H]2C(=O)NC3(CCC3)C(=O)N(C)[C@@H](C3CCCC3)C(=O)N(C)[C@H](C(=O)N(C)C)CC(=O)N(C)[C@@H](CC3CCCC3)C(=O)N[C@@H]([C@@H](C)CC)C(=O)N(C)CC(=O)N(C)[C@H]3C/C=C\CCN(C3=O)[C@@H](Cc3ccc(F)cc3)C(=O)N(C)CC(=O)N[C@@H](CCc3ccc4sccc4c3)C(=O)N2C1 [PP1390]	–	–	–	–	305	A (a compound having 10 or more and less than 20 is denoted as A)	1.1	A (a compound having 10 or more and less than 20 is denoted as A)	–
CCOC[C@H]1C(=O)N[C@@H]([C@@H](C)CC)C(=O)N2CCC[C@H]2C(=O)N(C)[C@H]2C/C=C\CCN(C2=O)[C@@H](Cc2ccc(C)cc2)C(=O)N(C)CC(=O)N[C@@H](CCc2ccc(C(F)(F)F)c(OC)c2)C(=O)N2C[C@@H](C)C[C@H]2C(=O)NC2(CC(C)(C)C2)C(=O)N(C)[C@@H](C2CCCC2)C(=O)N(C)[C@H](C(=O)N(C)CC)CC(=O)N1C [PP2427]	36.6	AA (a compound having 20 or more is denoted as AA)	0.7	A (a compound having 10 or more and less than 20 is denoted as A)	–	–	–	–	–
CCCO[C@@H]1C[C@H]2C(=O)NC3(CC(C)(C)C3)C(=O)N(C)[C@@H](C3CCCC3)C(=O)N(C)[C@H](C(=O)N(C)CC)CC(=O)N(C)[C@@H](COCC)C(=O)N[C@@H]([C@@H](C)CC)C(=O)N3CCC[C@H]3C(=O)N(C)[C@H]3C/C=C\CCN(C3=O)[C@@H](Cc3ccc(C(F)(F)F)cc3)C(=O)N(C)CC(=O)N[C@@H](CCc3cc(F)c(C(F)(F)F)c(F)c3)C(=O)N2C1 [PP3471]	48.7	A (a compound having 10 or more and less than 20 is denoted as A)	–	A (a compound having 10 or more and less than 20 is denoted as A)	–	–	–	–	1.1
CCO[C@@H]1C[C@H]2C(=O)NC3(CCC3)C(=O)N(C)[C@@H](C3CCCC3)C(=O)N(C)[C@H](C(=O)N(C)C)CC(=O)N(C)[C@@H](Cc3ccc(Cl)c(Cl)c3)C(=O)N[C@@H]([C@@H](C)CC)C(=O)N(C)CC(=O)N(C)[C@H]3CCCCCN(C3=O)[C@@H](Cc3ccc(C(F)(F)F)cc3)C(=O)N(C)CC(=O)N[C@@H](CCc3cc(F)c(C(F)(F)F)c(F)c3)C(=O)N2C1 [PP1174]	–	–	–	–	85.2	B (a compound having 3 or more and less than 10 is denoted as B)	1	B (a compound having 3 or more and less than 10 is denoted as B)	–
CCC[C@H]1C(=O)N[C@@H]([C@@H](C)CC)C(=O)N(C)CC(=O)N(C)[C@H]2C/C=C\CCN(C2=O)[C@@H](Cc2ccc(C)cc2)C(=O)N(C)CC(=O)N[C@@H](CCc2ccc(C(F)(F)F)c(OC)c2)C(=O)N2CC3(CC3)C[C@H]2C(=O)N(C)C2(CCC2)C(=O)N(C)[C@@H]([C@@H](C)CC)C(=O)N(C)[C@H](C(=O)N(C)C)CC(=O)N1C [PP3294]	3.4	A (a compound having 10 or more and less than 20 is denoted as A)	–	A (a compound having 10 or more and less than 20 is denoted as A)	–	–	–	–	0.099
